Results as given in patent publication US11325907B2, “Crystal form of 1H-imidazo[4,5-b]pyridine-2(3H)-one compound and preparation process therefor” (MEDSHINE DISCOVERY INC., priority 2018, dated 2022).

Assays:
Type in all cases: physicochemical
[1] = Hygroscopicity test (Dynamic Vapor Sorption); details: 25° C. and 80% RH, DVS
Protocol: Device: SEM Advantage-1 Dynamic Vapor Sorption apparatus
Testing conditions: The sample (10-20 mg) is placed in DVS sample disk for testing.
Balance: dm/dt=0.01%/min (min: 10 min, max: 180 min)
Drying: drying at 0% RH for 120 min
RH (%) testing gradient: 10%
RH (%) testing gradient range: 0% -90%-0%
The hygroscopicity is categorized as follows:
SEM DVS Advantage-1 Dynamic Vapor Sorption instrument

[2] = Solid stability test at high temperature, high humidity and strong light
Protocol: (§1) Content Determination Method
(§2) Device: Agilent 1260 High Performance Liquid Chromatograph with DAD detector or Shimadzu LC-20A High Performance Liquid Chromatograph with PDA detector
(§3) Detailed Chromatographic parameters are as follows:
(§4) Chromatographic column: Agilent Eclipse plus C18 (4.6 mm×150 mm, 3.5 μm)
(§5) Column temperature: 40° C.
(§6) Detecting wavelength: 230 nm
(§7) Mobile Phase A: 0.04% trifluoroacetic acid aqueous solution (V/V)
(§8) Mobile Phase B: acetonitrile
(§9) Diluent: acetonitrile: purified water=3:1 (v/v)
(§10) Probe Wash: acetonitrile: purified water=3:1 (v/v)
(§11) Gradient elution procedure: […]
The samples placed under high temperature and high humidity conditions were placed in a desiccator for inspection, and the samples were taken on the 5th, 10th and 30th days for testing, and the test results were compared with the initial test results of day 0. The samples placed under strong light were covered with a transparent lid with a sealing film, and the samples were taken on the 5th and 10th days for testing, and the test results were compared with the initial test results on day 0.

[3] = Solid stability test under accelerated conditions (40° C./Relative Humidity 75%, sealed)
Protocol: as §1, §2, §3, §4, §5, §6, §7, §8, §9, §10, §11
Each layer of the low-density polyethylene bag was buckled and sealed respectively and then the bag was placed in an aluminum foil bag and heat-sealed. The samples were taken on the 1st, 2nd, 3rd and 6th months for testing, and the test results were compared with the initial test results of day 0.

[4] = as above; details: 6th month
[5] = High humidity (Room Temperature/Relative Humidity 92.5%, Open), Day 5
[6] = High humidity (Room Temperature/Relative Humidity 92.5%, Open), Day 10
[7] = High humidity (Room Temperature/Relative Humidity 92.5%, Open), Day 30
[8] = High temperature (60° C., Open), Day 5
[9] = High temperature (60° C., Open), Day 10
[10] = High temperature (60° C., Open), Day 30
[11] = Strong light (4500 ± 500 lux, 90 μw/cm^2, Sealed), Day 5
[12] = Strong light (4500 ± 500 lux, 90 μw/cm^2, Sealed), Day 10
[13] = Batch 1, 40° C./Relative Humidity 75%, Sealed, 1st month
[14] = Batch 1, 40° C./Relative Humidity 75%, Sealed, 2nd month
[15] = Batch 1, 40° C./Relative Humidity 75%, Sealed, 3rd month
[16] = Batch 1, 40° C./Relative Humidity 75%, Sealed, 6th month
[17] = Batch 2, 40° C./Relative Humidity 75%, Sealed, 1st month
[18] = Batch 2, 40° C./Relative Humidity 75%, Sealed, 2nd month
[19] = Batch 2, 40° C./Relative Humidity 75%, Sealed, 3rd month
[20] = Batch 2, 40° C./Relative Humidity 75%, Sealed, 6th month
[21] = Batch 3, 40° C./Relative Humidity 75%, Sealed, 1st month
[22] = Batch 3, 40° C./Relative Humidity 75%, Sealed, 2nd month
[23] = Batch 3, 40° C./Relative Humidity 75%, Sealed, 3rd month
[24] = Batch 3, 40° C./Relative Humidity 75%, Sealed, 6th month
[25] = Batch 1, 40° C./Relative Humidity 75%
[26] = Batch 3, 40° C./Relative Humidity 75%

CCOc1cc([C@@H](CS(C)(=O)=O)n2c(=O)[nH]c3c(C)c(-c4ccccc4F)cnc32)ccc1OC [Crystal Form A of Compound 1]
Hygroscopic Category [1]: no or little hygroscopicity | ΔW (hygroscopic weight gain) [1]: 0.08% | Appearance ([2]; Day 0 (initial)): White | Content ([2]; Day 0 (initial)): 99.5% | Total Impurity ([2]; Day 0 (initial)): 0.11% | Appearance [2, 5]: White | Content [2, 5]: 99.0% | Total Impurity [2, 5]: 0.16% | Appearance [2, 6]: White | Content [2, 6]: 98.9% | Total Impurity [2, 6]: 0.16% | Appearance [2, 7]: White | Content [2, 7]: 99.0% | Total Impurity [2, 7]: 0.16% | Appearance [2, 8]: White | Content [2, 8]: 99.2% | Total Impurity [2, 8]: 0.16% | Appearance [2, 9]: White | Content [2, 9]: 98.8% | Total Impurity [2, 9]: 0.16% | Appearance [2, 10]: White | Content [2, 10]: 99.0% | Total Impurity [2, 10]: 0.16% | Appearance [2, 11]: White | Content [2, 11]: 98.8% | Total Impurity [2, 11]: 0.11% | Appearance [2, 12]: White | Content [2, 12]: 98.6% | Total Impurity [2, 12]: 0.11% | Solid stability (conclusion) ([2]; high temperature, high humidity or strong light conditions): good stability | Appearance [3, 13]: White powder | Content [3, 13]: 99.3% | Total Impurity [3, 13]: 0.09% | Appearance [3, 14]: White powder | Content [3, 14]: 99.1% | Total Impurity [3, 14]: 0.09% | Appearance [3, 15]: White powder | Content [3, 15]: 99.5% | Total Impurity [3, 15]: 0.09% | Content [3, 16]: 100.1% | Total Impurity [3, 16]: 0.10% | Appearance ([3]; Batch 1, Day 0): White powder | Content ([3]; Batch 1, Day 0): 99.4% | Crystal Form (XRPD) ([3]; Batch 1, Day 0): Crystal Form A | Total Impurity ([3]; Batch 1, Day 0): 0.09% | Appearance [3, 17]: White powder | Content [3, 17]: 99.1% | Total Impurity [3, 17]: 0.11% | Appearance [3, 18]: White powder | Content [3, 18]: 99.0% | Total Impurity [3, 18]: 0.11% | Appearance [3, 19]: White powder | Content [3, 19]: 99.2% | Total Impurity [3, 19]: 0.10% | Appearance [3, 20]: White powder | Content [3, 20]: 100.5% | Crystal Form (XRPD) [3, 20]: Crystal Form A | Total Impurity [3, 20]: 0.12% | Appearance ([3]; Batch 2, Day 0): White powder | Content ([3]; Batch 2, Day 0): 99.4% | Crystal Form (XRPD) ([3]; Batch 2, Day 0): Crystal Form A | Total Impurity ([3]; Batch 2, Day 0): 0.10% | Appearance [3, 21]: White powder | Content [3, 21]: 98.8% | Total Impurity [3, 21]: 0.16% | Appearance [3, 22]: White powder | Content [3, 22]: 98.9% | Total Impurity [3, 22]: 0.16% | Appearance [3, 23]: White powder | Content [3, 23]: 99.2% | Total Impurity [3, 23]: 0.16% | Content [3, 24]: 100.0% | Total Impurity [3, 24]: 0.11% | Appearance ([3]; Batch 3, Day 0): White powder | Content ([3]; Batch 3, Day 0): 99.5% | Crystal Form (XRPD) ([3]; Batch 3, Day 0): Crystal Form A | Total Impurity ([3]; Batch 3, Day 0): 0.11% | Solid stability (conclusion) ([3]; accelerated conditions of 40° C./Relative Humidity 75%): good stability | Appearance [4, 25]: White powder | Crystal Form (XRPD) [4, 25]: Crystal Form A | Appearance [4, 26]: White powder | Crystal Form (XRPD) [4, 26]: Crystal Form A
